Reference: patent US20160009693A1, “HERBICIDAL COMPOUNDS” (SYNGENTA LIMITED, priority 2013, published 2016)

tested on: Solanum nigrum (SOLNI); assay: Herbicidal glasshouse test, post-emergence, SOLNI; format: in vivo; conditions: applied at 1000 g/h, evaluated after 13 days

Row | SMILES | POST Application SOLNI, percentage damage (five point scale)
1 | Cn1nnnc1NC(=O)c1nn(C)c(=O)n(Cc2cccc(F)c2)c1=O [Compound 1.063] | 5 (5=80-100%)
2 | Cn1nnnc1NC(=O)c1nn(C)c(=O)n(Cc2ccc(F)c(F)c2)c1=O [Compound 1.064] | 5 (5=80-100%)
3 | Cn1nnnc1NC(=O)c1nn(C)c(=O)n(Cc2c(F)cccc2F)c1=O [Compound 1.065] | 5 (5=80-100%)
4 | Cn1nnnc1NC(=O)c1nn(C)c(=O)n(Cc2ccc(OC(F)F)cc2)c1=O [Compound 1.066] | 5 (5=80-100%)
5 | Cn1nnnc1NC(=O)c1nn(C)c(=O)n(Cc2cccc(F)c2F)c1=O [Compound 1.067] | 5 (5=80-100%)

tested on: Ipomoea hederacea (IPOHE); assay: Herbicidal glasshouse test, post-emergence, IPOHE; format: in vivo; conditions: applied at 1000 g/h, evaluated after 13 days

Row | SMILES | POST Application IPOHE, percentage damage (five point scale)
6 | Cn1nnnc1NC(=O)c1nn(C)c(=O)n(Cc2cccc(F)c2)c1=O [Compound 1.063] | 5 (5=80-100%)
7 | Cn1nnnc1NC(=O)c1nn(C)c(=O)n(Cc2ccc(F)c(F)c2)c1=O [Compound 1.064] | 5 (5=80-100%)
8 | Cn1nnnc1NC(=O)c1nn(C)c(=O)n(Cc2c(F)cccc2F)c1=O [Compound 1.065] | 5 (5=80-100%)
9 | Cn1nnnc1NC(=O)c1nn(C)c(=O)n(Cc2ccc(OC(F)F)cc2)c1=O [Compound 1.066] | 5 (5=80-100%)
10 | Cn1nnnc1NC(=O)c1nn(C)c(=O)n(Cc2cccc(F)c2F)c1=O [Compound 1.067] | 5 (5=80-100%)

tested on: Setaria faberi (SETFA); assay: Herbicidal glasshouse test, pre-emergence, SETFA; format: in vivo; conditions: applied at 1000 g/h, evaluated after 13 days

Row | SMILES | PRE Application SETFA, percentage damage (five point scale)
11 | Cn1nnnc1NC(=O)c1nn(C)c(=O)n(Cc2cccc(F)c2)c1=O [Compound 1.063] | 4 (4=60-79%)
12 | Cn1nnnc1NC(=O)c1nn(C)c(=O)n(Cc2ccc(F)c(F)c2)c1=O [Compound 1.064] | 1 (1=0-19%)
13 | Cn1nnnc1NC(=O)c1nn(C)c(=O)n(Cc2c(F)cccc2F)c1=O [Compound 1.065] | 5 (5=80-100%)
14 | Cn1nnnc1NC(=O)c1nn(C)c(=O)n(Cc2ccc(OC(F)F)cc2)c1=O [Compound 1.066] | 1 (1=0-19%)
15 | Cn1nnnc1NC(=O)c1nn(C)c(=O)n(Cc2cccc(F)c2F)c1=O [Compound 1.067] | 4 (4=60-79%)

tested on: Echinochloa crus-galli (ECHCG); assay: Herbicidal glasshouse test, pre-emergence, ECHCG; format: in vivo; conditions: applied at 1000 g/h, evaluated after 13 days
Outline: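 In this pre-emergence glasshouse test, ECHCG seeds sown in pots of standard soil were sprayed one day after sowing with the test material in acetone/water (50:50) containing 0.5% Tween 20. Plants were kept at 24/16° C., 14 hours light, 65% humidity, and watered twice daily. Percentage damage was rated after 13 days on a 1–5 scale.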

Row | SMILES | PRE Application ECHCG, percentage damage (five point scale)
16 | Cn1nnnc1NC(=O)c1nn(C)c(=O)n(Cc2cccc(F)c2)c1=O [Compound 1.063] | 5 (5=80-100%)
17 | Cn1nnnc1NC(=O)c1nn(C)c(=O)n(Cc2ccc(F)c(F)c2)c1=O [Compound 1.064] | 5 (5=80-100%)
18 | Cn1nnnc1NC(=O)c1nn(C)c(=O)n(Cc2c(F)cccc2F)c1=O [Compound 1.065] | 5 (5=80-100%)
19 | Cn1nnnc1NC(=O)c1nn(C)c(=O)n(Cc2ccc(OC(F)F)cc2)c1=O [Compound 1.066] | 5 (5=80-100%)
20 | Cn1nnnc1NC(=O)c1nn(C)c(=O)n(Cc2cccc(F)c2F)c1=O [Compound 1.067] | 5 (5=80-100%)

tested on: Alopecurus myosuroides (ALOMY); assay: Herbicidal glasshouse test, pre-emergence, ALOMY; format: in vivo; conditions: applied at 1000 g/h, evaluated after 13 days

Row | SMILES | PRE Application ALOMY, percentage damage (five point scale)
21 | Cn1nnnc1NC(=O)c1nn(C)c(=O)n(Cc2cccc(F)c2)c1=O [Compound 1.063] | 5 (5=80-100%)
22 | Cn1nnnc1NC(=O)c1nn(C)c(=O)n(Cc2ccc(F)c(F)c2)c1=O [Compound 1.064] | 5 (5=80-100%)
23 | Cn1nnnc1NC(=O)c1nn(C)c(=O)n(Cc2c(F)cccc2F)c1=O [Compound 1.065] | 5 (5=80-100%)
24 | Cn1nnnc1NC(=O)c1nn(C)c(=O)n(Cc2ccc(OC(F)F)cc2)c1=O [Compound 1.066] | 5 (5=80-100%)
25 | Cn1nnnc1NC(=O)c1nn(C)c(=O)n(Cc2cccc(F)c2F)c1=O [Compound 1.067] | 5 (5=80-100%)

tested on: Ipomoea hederacea (IPOHE); assay: Herbicidal glasshouse test, pre-emergence, IPOHE; format: in vivo; conditions: applied at 1000 g/h, evaluated after 13 days

Row | SMILES | PRE Application IPOHE, percentage damage (five point scale)
26 | Cn1nnnc1NC(=O)c1nn(C)c(=O)n(Cc2cccc(F)c2)c1=O [Compound 1.063] | 5 (5=80-100%)
27 | Cn1nnnc1NC(=O)c1nn(C)c(=O)n(Cc2ccc(F)c(F)c2)c1=O [Compound 1.064] | 5 (5=80-100%)
28 | Cn1nnnc1NC(=O)c1nn(C)c(=O)n(Cc2c(F)cccc2F)c1=O [Compound 1.065] | 5 (5=80-100%)
29 | Cn1nnnc1NC(=O)c1nn(C)c(=O)n(Cc2ccc(OC(F)F)cc2)c1=O [Compound 1.066] | 5 (5=80-100%)
30 | Cn1nnnc1NC(=O)c1nn(C)c(=O)n(Cc2cccc(F)c2F)c1=O [Compound 1.067] | 5 (5=80-100%)

tested on: Amaranthus retoflexus (AMARE); assay: Herbicidal glasshouse test, pre-emergence, AMARE; format: in vivo; conditions: applied at 1000 g/h, evaluated after 13 days
Outline: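 This pre-emergence glasshouse herbicide test used Amaranthus retoflexus sown in standard soil. After one day of cultivation, an aqueous spray made from the technical ingredient in 50:50 acetone/water with 0.5% Tween 20 was applied. Pots stayed at 24/16° C., 14 hours light, 65% humidity, with twice-daily watering. Damage was rated on a five point scale (1=0-19% up to 5=80-100%).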

Row | SMILES | PRE Application AMARE, percentage damage (five point scale)
31 | Cn1nnnc1NC(=O)c1nn(C)c(=O)n(Cc2cccc(F)c2)c1=O [Compound 1.063] | 5 (5=80-100%)
32 | Cn1nnnc1NC(=O)c1nn(C)c(=O)n(Cc2ccc(F)c(F)c2)c1=O [Compound 1.064] | 5 (5=80-100%)
33 | Cn1nnnc1NC(=O)c1nn(C)c(=O)n(Cc2c(F)cccc2F)c1=O [Compound 1.065] | 5 (5=80-100%)
34 | Cn1nnnc1NC(=O)c1nn(C)c(=O)n(Cc2ccc(OC(F)F)cc2)c1=O [Compound 1.066] | 5 (5=80-100%)
35 | Cn1nnnc1NC(=O)c1nn(C)c(=O)n(Cc2cccc(F)c2F)c1=O [Compound 1.067] | 5 (5=80-100%)

tested on: Setaria faberi (SETFA); assay: Herbicidal glasshouse test, post-emergence, SETFA; format: in vivo; conditions: applied at 1000 g/h, evaluated after 13 days
Outline: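 This post-emergence glasshouse herbicide test used potted Setaria faberi. Plants were cultivated for 8 days under controlled conditions (24/16° C. day/night, 14 hours light, 65% humidity) and then treated with an aqueous spray made from an acetone/water (50:50) solution containing 0.5% Tween 20. After 13 days of further growth with twice-daily watering, damage was rated on a five point scale (5=80-100%; 1=0-19%).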

Row | SMILES | POST Application SETFA, percentage damage (five point scale)
36 | Cn1nnnc1NC(=O)c1nn(C)c(=O)n(Cc2cccc(F)c2)c1=O [Compound 1.063] | 4 (4=60-79%)
37 | Cn1nnnc1NC(=O)c1nn(C)c(=O)n(Cc2ccc(F)c(F)c2)c1=O [Compound 1.064] | 2 (2=20-39%)
38 | Cn1nnnc1NC(=O)c1nn(C)c(=O)n(Cc2c(F)cccc2F)c1=O [Compound 1.065] | 5 (5=80-100%)
39 | Cn1nnnc1NC(=O)c1nn(C)c(=O)n(Cc2ccc(OC(F)F)cc2)c1=O [Compound 1.066] | 1 (1=0-19%)
40 | Cn1nnnc1NC(=O)c1nn(C)c(=O)n(Cc2cccc(F)c2F)c1=O [Compound 1.067] | 4 (4=60-79%)

tested on: Echinochloa crus-galli (ECHCG); assay: Herbicidal glasshouse test, post-emergence, ECHCG; format: in vivo; conditions: applied at 1000 g/h, evaluated after 13 days
Outline: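 In this post-emergence glasshouse test, barnyard grass (ECHCG) was cultivated for 8 days under controlled conditions (24/16° C. day/night, 14 hours light, 65% humidity). It was then sprayed with an aqueous solution of the technical compound in acetone / water (50:50) with 0.5% Tween 20. Plants were kept under the same conditions and watered twice daily. After 13 days, percentage damage was rated on a five point scale (5=80-100%; 1=0-19%).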

Row | SMILES | POST Application ECHCG, percentage damage (five point scale)
41 | Cn1nnnc1NC(=O)c1nn(C)c(=O)n(Cc2cccc(F)c2)c1=O [Compound 1.063] | 5 (5=80-100%)
42 | Cn1nnnc1NC(=O)c1nn(C)c(=O)n(Cc2ccc(F)c(F)c2)c1=O [Compound 1.064] | 5 (5=80-100%)
43 | Cn1nnnc1NC(=O)c1nn(C)c(=O)n(Cc2c(F)cccc2F)c1=O [Compound 1.065] | 5 (5=80-100%)
44 | Cn1nnnc1NC(=O)c1nn(C)c(=O)n(Cc2ccc(OC(F)F)cc2)c1=O [Compound 1.066] | 5 (5=80-100%)
45 | Cn1nnnc1NC(=O)c1nn(C)c(=O)n(Cc2cccc(F)c2F)c1=O [Compound 1.067] | 5 (5=80-100%)

tested on: Alopecurus myosuroides (ALOMY); assay: Herbicidal glasshouse test, post-emergence, ALOMY; format: in vivo; conditions: applied at 1000 g/h, evaluated after 13 days

Row | SMILES | POST Application ALOMY, percentage damage (five point scale)
46 | Cn1nnnc1NC(=O)c1nn(C)c(=O)n(Cc2cccc(F)c2)c1=O [Compound 1.063] | 5 (5=80-100%)
47 | Cn1nnnc1NC(=O)c1nn(C)c(=O)n(Cc2ccc(F)c(F)c2)c1=O [Compound 1.064] | 2 (2=20-39%)
48 | Cn1nnnc1NC(=O)c1nn(C)c(=O)n(Cc2c(F)cccc2F)c1=O [Compound 1.065] | 5 (5=80-100%)
49 | Cn1nnnc1NC(=O)c1nn(C)c(=O)n(Cc2ccc(OC(F)F)cc2)c1=O [Compound 1.066] | 5 (5=80-100%)
50 | Cn1nnnc1NC(=O)c1nn(C)c(=O)n(Cc2cccc(F)c2F)c1=O [Compound 1.067] | 5 (5=80-100%)

tested on: Solanum nigrum (SOLNI); assay: Herbicidal glasshouse test, pre-emergence, SOLNI; format: in vivo; conditions: applied at 1000 g/h, evaluated after 13 days
Outline: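 This pre-emergence glasshouse herbicide test used Solanum nigrum sown in standard soil. One day after sowing, pots were sprayed with the compound in acetone/water (50:50) with 0.5% Tween 20. They were then grown at 24/16° C., with 14 hours light and 65% humidity, and watered twice daily. Percentage damage was scored after 13 days on a five point scale, where 5=80-100% and 1=0-19%.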

Row | SMILES | PRE Application SOLNI, percentage damage (five point scale)
51 | Cn1nnnc1NC(=O)c1nn(C)c(=O)n(Cc2cccc(F)c2)c1=O [Compound 1.063] | 5 (5=80-100%)
52 | Cn1nnnc1NC(=O)c1nn(C)c(=O)n(Cc2ccc(F)c(F)c2)c1=O [Compound 1.064] | 5 (5=80-100%)
53 | Cn1nnnc1NC(=O)c1nn(C)c(=O)n(Cc2c(F)cccc2F)c1=O [Compound 1.065] | 5 (5=80-100%)
54 | Cn1nnnc1NC(=O)c1nn(C)c(=O)n(Cc2ccc(OC(F)F)cc2)c1=O [Compound 1.066] | 5 (5=80-100%)
55 | Cn1nnnc1NC(=O)c1nn(C)c(=O)n(Cc2cccc(F)c2F)c1=O [Compound 1.067] | 5 (5=80-100%)

tested on: Amaranthus retoflexus (AMARE); assay: Herbicidal glasshouse test, post-emergence, AMARE; format: in vivo; conditions: applied at 1000 g/h, evaluated after 13 days
Outline: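 This post-emergence glasshouse test used AMARE plants raised in standard soil for 8 days under controlled conditions (24/16° C. day/night, 14 hours light, 65% humidity). Foliage was sprayed with formulated compound in acetone/water (50:50) containing 0.5% Tween 20. Plants were then watered twice daily, and after 13 days percentage damage was rated on a five point scale.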

Row | SMILES | POST Application AMARE, percentage damage (five point scale)
56 | Cn1nnnc1NC(=O)c1nn(C)c(=O)n(Cc2cccc(F)c2)c1=O [Compound 1.063] | 5 (5=80-100%)
57 | Cn1nnnc1NC(=O)c1nn(C)c(=O)n(Cc2ccc(F)c(F)c2)c1=O [Compound 1.064] | 5 (5=80-100%)
58 | Cn1nnnc1NC(=O)c1nn(C)c(=O)n(Cc2c(F)cccc2F)c1=O [Compound 1.065] | 5 (5=80-100%)
59 | Cn1nnnc1NC(=O)c1nn(C)c(=O)n(Cc2ccc(OC(F)F)cc2)c1=O [Compound 1.066] | 5 (5=80-100%)
60 | Cn1nnnc1NC(=O)c1nn(C)c(=O)n(Cc2cccc(F)c2F)c1=O [Compound 1.067] | 5 (5=80-100%)
